Columns and labels:
[1] = Inhibition of Trypanosoma brucei cathepsin B expressed in Pichia pastoris
Rhodesain = Rhodesain (Trypanosoma brucei rhodesiense, UniProt Q95PM0); experiment: Inhibition of Trypanosoma brucei rhodesiense rhodesain
Procathepsin L = Procathepsin L (Homo sapiens, UniProt P07711); experiment: Inhibition of human liver cathepsin L
Trypanosoma brucei = experiment: Antitrypanosomal activity against Trypanosoma brucei after 48 hrs; assay type: functional, organism-based
BJ = experiment: Cytotoxicity against human BJ cells after 72 hrs by alamar blue assay; assay type: ADME, cell-based
Raji = experiment: Cytotoxicity against human Raji cells after 72 hrs by alamar blue assay; assay type: ADME, cell-based
HepG2 = experiment: Cytotoxicity against human HepG2 cells after 72 hrs by alamar blue assay; assay type: ADME, cell-based; settings: HepG2, 72 h
HEK293 = experiment: Cytotoxicity against human HEK293 cells after 72 hrs by alamar blue assay; assay type: ADME, cell-based; settings: HEK293, 72 h
Cathepsin B = Cathepsin B (Homo sapiens, UniProt P07858); experiment: Inhibition of human liver cathepsin B

Rhodesain, sequence (Q95PM0 whole entry): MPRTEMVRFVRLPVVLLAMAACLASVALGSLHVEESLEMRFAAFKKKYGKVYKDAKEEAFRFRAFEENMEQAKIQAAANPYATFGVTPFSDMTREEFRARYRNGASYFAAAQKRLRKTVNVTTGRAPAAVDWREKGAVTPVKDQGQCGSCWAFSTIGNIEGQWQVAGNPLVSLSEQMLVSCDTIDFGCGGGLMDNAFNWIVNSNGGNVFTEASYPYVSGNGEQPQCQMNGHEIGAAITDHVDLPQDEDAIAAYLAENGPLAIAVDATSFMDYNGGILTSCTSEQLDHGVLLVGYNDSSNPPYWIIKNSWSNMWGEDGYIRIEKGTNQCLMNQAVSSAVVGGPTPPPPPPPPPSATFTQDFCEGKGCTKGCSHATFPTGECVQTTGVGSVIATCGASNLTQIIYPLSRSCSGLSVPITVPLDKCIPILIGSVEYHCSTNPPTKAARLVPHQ
Procathepsin L, sequence (P07711 whole entry): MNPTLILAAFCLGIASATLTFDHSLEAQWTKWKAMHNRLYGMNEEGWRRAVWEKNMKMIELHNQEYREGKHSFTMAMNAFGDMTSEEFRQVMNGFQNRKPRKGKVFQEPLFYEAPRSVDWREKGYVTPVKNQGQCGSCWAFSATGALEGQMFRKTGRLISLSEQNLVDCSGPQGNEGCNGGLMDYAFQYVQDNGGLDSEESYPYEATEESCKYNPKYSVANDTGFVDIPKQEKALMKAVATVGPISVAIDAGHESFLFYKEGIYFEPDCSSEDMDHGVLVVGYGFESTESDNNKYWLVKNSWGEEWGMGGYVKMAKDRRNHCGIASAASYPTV

SMILES	IC50 [1] [µM]	IC50 (Rhodesain) [µM]	IC50 (Procathepsin L) [µM]	EC50 (Trypanosoma brucei) [µM]	EC50 (BJ) [µM]	EC50 (Raji) [µM]	EC50 (HepG2) [µM]	EC50 (HEK293) [µM]	IC50 (Cathepsin B) [µM]
N#Cc1nc(NCc2cccc(-c3ccccc3)c2)c2ncn(CCCO)c2n1	1.8	0.7	0.8	1.4	> 10	> 10	> 10	> 10	–
COC(=O)c1ccc(-c2cccc(CNc3nc(C#N)nc4c3ncn4CCCO)c2)cc1	1.6	1.2	1.8	4	> 10	> 10	> 10	> 10	–
C=Cc1ccc(-c2cccc(CNc3nc(C#N)nc4c3ncn4CCCO)c2)cc1	0.9	1.8	1.1	–	> 10	> 10	> 10	> 10	–
N#Cc1nc(NCc2cccc(-c3ccc4cc[nH]c4c3)c2)c2ncn(CCCO)c2n1	0.24	0.26	0.46	0.8	> 10	> 10	> 10	> 10	–
CC(C)c1ccccc1-c1cccc(CNc2nc(C#N)nc3c2ncn3CCCO)c1	0.31	–	0.9	0.63	–	–	–	–	–
CC(C)Oc1c(Br)cccc1-c1cccc(CNc2nc(C#N)nc3c2ncn3CCCO)c1	0.9	1.5	1.3	–	> 10	> 10	> 10	> 10	> 50
N#Cc1nc(NCc2cccc(-c3ccco3)c2)c2ncn(CCCO)c2n1	1	0.31	0.84	1.6	> 10	> 10	> 10	> 10	–
N#Cc1nc(NCc2cccc(-c3cccs3)c2)c2ncn(CCCO)c2n1	0.6	0.8	0.9	–	> 10	> 10	> 10	> 10	–
N#Cc1nc(NCc2cccc(-c3ccc(Cl)cc3)c2)c2ncn(CCCO)c2n1	–	1.4	1.9	–	–	–	–	–	–
N#Cc1nc(NCc2cccc(-c3cc4ccccc4n3S(=O)(=O)c3ccccc3)c2)c2ncn(CCCO)c2n1	> 15	9	1.8	–	> 10	> 10	> 10	> 10	> 50
C=Cc1cccc(-c2cccc(CNc3nc(C#N)nc4c3ncn4CCCO)c2)c1	0.8	–	–	–	> 10	> 10	> 10	> 10	–
N#Cc1nc(NCc2cccc(-c3cccc(Cl)c3)c2)c2ncn(CCCO)c2n1	0.8	1.2	0.7	3.7	> 10	> 10	> 10	> 10	–
N#Cc1nc(NCc2cccc(-c3cn(S(=O)(=O)c4ccccc4)c4ccccc34)c2)c2ncn(CCCO)c2n1	> 15	2	1	2	> 10	> 10	> 10	> 10	> 50
N#Cc1nc(NCc2cccc(-c3ccccc3Cl)c2)c2ncn(CCCO)c2n1	1.3	20	16	–	–	–	–	–	–
N#Cc1nc(NCc2cccc(-c3cc(Cl)cc(Cl)c3)c2)c2ncn(CCCO)c2n1	1.2	1.1	0.9	3.3	> 10	> 10	> 10	> 10	–
N#Cc1nc(NCc2cccc(-c3c(F)c(F)c(F)c(F)c3F)c2)c2ncn(CCCO)c2n1	0.9	5.2	2.7	–	> 10	> 10	> 10	> 10	–

SMILES	IC50 [1] [µM]	IC50 (Rhodesain) [µM]	IC50 (Procathepsin L) [µM]	EC50 (Trypanosoma brucei) [µM]	EC50 (BJ) [µM]	EC50 (Raji) [µM]	EC50 (HepG2) [µM]	EC50 (HEK293) [µM]	IC50 (Cathepsin B) [µM]
Cc1cccc(C)c1-c1cccc(CNc2nc(C#N)nc3c2ncn3CCCO)c1	0.27	> 15	1	–	–	–	–	–	–
N#Cc1nc(NCc2cccc(-c3ccc4ccccc4c3)c2)c2ncn(CCCO)c2n1	0.23	0.7	0.8	1.1	> 10	> 10	> 10	> 10	–
N#Cc1nc(NCc2cccc(-c3ccc(Cl)c(Cl)c3)c2)c2ncn(CCCO)c2n1	1.2	0.9	1.6	2.3	> 10	> 10	> 10	> 10	–
COc1ccc(-c2cccc(CNc3nc(C#N)nc4c3ncn4CCCO)c2)cc1	1.2	0.8	1.1	–	> 10	> 10	> 10	> 10	–
Cc1ccccc1-c1cccc(CNc2nc(C#N)nc3c2ncn3CCCO)c1	0.39	> 50	1.1	–	–	–	–	–	–
N#Cc1nc(NCc2cccc(-c3ccsc3)c2)c2ncn(CCCO)c2n1	0.37	0.24	0.48	0.43	> 10	> 10	> 10	> 10	–
COC(=O)c1cccc(-c2cccc(CNc3nc(C#N)nc4c3ncn4CCCO)c2)c1	–	0.5	–	2.7	> 10	> 10	> 10	> 10	–
N#Cc1nc(NCc2cccc(-c3ccoc3)c2)c2ncn(CCCO)c2n1	0.46	0.03	0.6	0.56	> 10	> 10	> 10	> 10	–
CC(=O)Nc1cccc(-c2cccc(CNc3nc(C#N)nc4c3ncn4CCCO)c2)c1	1.6	–	–	4.1	> 10	> 10	> 10	> 10	–
N#Cc1nc(NCc2cccc(-c3ccccc3C(F)(F)F)c2)c2ncn(CCCO)c2n1	0.28	8	1.5	–	> 10	> 10	> 10	> 10	–
N#Cc1nc(NCc2cccc(-c3cccnc3)c2)c2ncn(CCCO)c2n1	0.6	0.26	1.6	1.4	> 10	> 10	> 10	> 10	–
CN(C)c1cccc(-c2cccc(CNc3nc(C#N)nc4c3ncn4CCCO)c2)c1	1.2	0.9	1.4	–	> 10	> 10	> 10	> 10	–
COC(=O)c1ccccc1-c1cccc(CNc2nc(C#N)nc3c2ncn3CCCO)c1	1	> 10	1.4	0.7	–	–	–	–	> 15
N#Cc1nc(NCc2cccc(-c3ccc4[nH]ccc4c3)c2)c2ncn(CCCO)c2n1	0.25	0.5	0.19	0.38	> 10	> 10	> 10	> 10	–
COc1ncc(-c2cccc(CNc3nc(C#N)nc4c3ncn4CCCO)c2)c(OC)n1	2.9	4	6	5.9	> 10	> 10	> 10	> 10	> 15
